Source: patent publication US20240101557A1, “FUSED TRICYCLIC COMPOUNDS AS INHIBITORS OF KRAS G12V MUTANTS” (INCYTE CORPORATION, priority 2022, published 2024)

Legend:
KRAS G12V = assay: G12V_cell (cellular assay on KRAS G12V cells, method not named in Table 1); format: cell-based; conditions: cell line and readout not stated
Protocol: MIA PaCa-2 (KRAS G12C; ATCC® CRL-1420), NCI-H358 (KRAS G12C; ATCC® CRL-5807), A427 (KRAS G12D; ATCC® HTB53), HPAFII (KRAS G12D; ATCC® CRL-1997), YAPC (KRAS G12V; DSMZ ACC382), SW480 (KRAS G12V; ATCC® CRL-228) and NCI-H838 (KRAS WT; ATCC® CRL-5844) cells are cultured in RPMI 1640 media supplemented with 10% FBS (Gibco/Life Technologies). Eight hundred cells per well in RPMI 1640 media supplemented with 2% FBS are seeded into white, clear bottomed 384-well Costar tissue culture plates containing 50 nL dots of test compounds (final concentration is a 1:500 dilution, with a final concentration in 0.2% DMSO). Plates are incubated for 3 days at […], 5% CO2. At the end of the assay, 25 ul/well of CellTiter-Glo reagent (Promega) is added. Luminescence is read after 15 min. with a PHERAstar (BMG). Data are analyzed in Genedata Screener using SmartFit for IC50 values.
MIA PaCa-2 (KRAS G12C; ATCC® CRL-1420), NCI-H358 (KRAS G12C; ATCC® CRL-5807), A427 (KRAS G12D; ATCC® HTB53), HPAFII (KRAS G12D; ATCC® CRL-1997), YAPC (KRAS G12V; DSMZ ACC382), SW480 (KRAS G12V; ATCC® CRL-228) and NCI-H838 (KRAS WT; ATCC® CRL-5844) cells are purchased from ATCC and maintained in RPMI 1640 media supplemented with 10% FBS (Gibco/Life Technologies). The cells are plated at 5000 cells per well (8 uL) into Greiner 384-well low volume, flat-bottom, and tissue culture treated white plates and incubated overnight at […], 5% CO2. The next morning, test compound stock solutions are diluted in media at 3× the final concentration and 4 uL are added to the cells, with a final concentration of 0.1% of DMSO. The cells are incubated with the test compounds for 4 h (G12C and G12V) or 2 hrs (G12D) at 37° C., 5% CO2. Four uL of 4× lysis buffer with blocking reagent (Cisbio) are added to each well and plates are rotated gently (300 rpm) for 30 min. at r.t. Four uL per well of Cisbio anti Phospho-ERK ½ d2 is mixed with anti Phospho-ERK ½ Cryptate (1:1), and added to each well, incubated overnight in the dark at r.t. Plates are read on the Pherastar plate reader at 665 nm and 620 nm wavelengths. Data are analyzed in Genedata Screener using SmartFit for IC50 values.

KRAS G12D = KRAS G12D (Homo sapiens, UniProt P01116, G12D); assay: GDP-GTP exchange assay (bodipy-GDP for GppNHp, with SOS1), KRAS G12D; format: biochemical; conditions: bodipy-loaded KRAS G12D 2.5 nM, 4 h pre-incubation, 2 h after GppNHp/SOS1; read-out: G12D_exchange
Chain of KRAS G12D (P01116 1-188 isoform P01116-2 G12D): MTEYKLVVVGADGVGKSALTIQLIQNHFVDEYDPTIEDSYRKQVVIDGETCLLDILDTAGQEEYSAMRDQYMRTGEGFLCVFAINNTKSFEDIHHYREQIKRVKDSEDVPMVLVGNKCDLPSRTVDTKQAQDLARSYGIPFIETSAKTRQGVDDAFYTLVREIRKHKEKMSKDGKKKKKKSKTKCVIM
Protocol: (§1) The inhibitor potency of the exemplified compounds was determined in a fluorescence based guanine nucleotide exchange assay, which measures the exchange of bodipy-GDP (fluorescently labeled GDP) for GppNHp (Non-hydrolyzable GTP analog) to generate the active state of KRAS in the presence of SOS1 (guanine nucleotide exchange factor). Inhibitors were serially diluted in DMSO and a volume of 0.1 μL was transferred to the wells of a black low volume 384-well plate. 5 μL/well volume of bodipy-loaded KRAS G12D diluted to 2.5 nM in assay buffer (25 mM Hepes pH 7.5, 50 mM NaCl, 10 mM MgCl2 and 0.01% Brij-35) was added to the plate and pre-incubated with inhibitor for 4 h at ambient temperature. Appropriate controls (enzyme with no inhibitor or with a G12D inhibitor) were included on the plate. The exchange was initiated by the addition of a 5 μL/well volume containing 1 mM GppNHp and 300 nM SOS1 in assay buffer. The 10 μL/well reaction concentration of the bodipy-loaded KRAS G12D, GppNHp, and SOS1 were 2.5 nM, 500 uM, and 150 nM, respectively. The reaction plates were incubated at ambient temperature for 2 h, a time estimated for complete GDP-GTP exchange in the absence of inhibitor. For the KRAS G12V mutant, similar guanine nucleotide exchange assays were used with 2.5 nM as final concentration for the bodipy loaded KRAS proteins and 3 h incubation after adding GppNHp-SOS1 mixture. A cyclic peptide described to selectively bind G12D mutant (Sakamoto et al., BBRC 484.3 (2017), 605-611) or internal compounds with confirmed binding were used as positive controls in the assay plates. Fluorescence intensities were measured on a PheraStar plate reader instrument (BMG Labtech) with excitation at 485 nm and emission at 520 nm.
(§2) Either GraphPad prism or Genedata Screener SmartFit was used to analyze the data. The IC50 values were derived by fitting the data to a four parameter logistic equation producing a sigmoidal dose-response curve with a variable Hill coefficient.
(§3) The symbol “†” indicates IC50≤100 nM, “††” indicates IC50>100 nM but ≤1 μM; and “†††” indicates IC50 is >1 μM but ≤5 μM, “††††” indicates IC50 is >5 μM but ≤10 μM. “NA” indicates IC50 not available.

KRAS G12V mutant = KRAS G12V mutant (Homo sapiens, UniProt P01116, G12V); assay: GDP-GTP exchange assay (bodipy-GDP for GppNHp, with SOS1), KRAS G12V; format: biochemical; conditions: bodipy-loaded KRAS G12V 2.5 nM, 3 h incubation after GppNHp-SOS1; read-out: G12V_ exchange
Chain of KRAS G12V mutant (P01116 1-188 isoform P01116-2 G12V): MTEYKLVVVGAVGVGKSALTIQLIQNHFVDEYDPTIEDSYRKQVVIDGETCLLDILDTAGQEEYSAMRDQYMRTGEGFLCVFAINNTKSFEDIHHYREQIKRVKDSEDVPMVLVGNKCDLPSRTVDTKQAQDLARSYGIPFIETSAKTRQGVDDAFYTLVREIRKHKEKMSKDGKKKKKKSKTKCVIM
Protocol: as §1, §2, §3

Measured: IC50

C[C@H](Oc1nc2c(F)c(-c3cccc4ccc(F)cc34)c(CCC#N)cc2c2c1cc(-c1cnn(C)c1C(=O)N(C)C)n2[C@H]1[C@H]2CN[C@@H]1C2)[C@@H]1CCCN1C [Example 2, 4-(1-((1R,4R,5S)-2-Azabicyclo[2.1.1]hexan-5-yl)-8-(2-cyanoethyl)-6-fluoro-7-(7-fluoronaphthalen-1-yl)-4-((S)-1-((S)-1-methylpyrrolidin-2-yl)ethoxy)-1H-pyrrolo[3,2-c]quinolin-2-yl)-N,N,1-trimethyl-1H-pyrazole-5-carboxamide]
≤ 0.1 µM: all assays above

C[C@H](Oc1nc2c(F)c(-c3cccc(Cl)c3Cl)c(CCC#N)cc2c2c1cc([C@H]1C[C@H](Oc3ncccc3F)CN1C(=O)C1CC1)n2[C@H]1[C@H]2CN[C@@H]1C2)[C@@H]1CCCN1C [Example 9, 3-(1-((1R,4R,5S)-2-Azabicyclo[2.1.1]hexan-5-yl)-2-((2R,4S)-1-(cyclopropanecarbonyl)-4-((3-fluoropyridin-2-yl)oxy)pyrrolidin-2-yl)-7-(2,3-dichlorophenyl)-6-fluoro-4-((S)-1-((S)-1-methylpyrrolidin-2-yl)ethoxy)-1H-pyrrolo[3,2-c]quinolin-8-yl)propanenitrile]
≤ 0.1 µM: all assays above

CC(=O)N1CCC[C@@H]1c1cc2c(O[C@@H](C)[C@@H]3CCCN3C)nc3c(F)c(-c4cccc5ncc(F)cc45)c(CCC#N)cc3c2n1[C@H]1[C@H]2CN[C@@H]1C2 [Example 5, 3-(2-((R)-1-Acetylpyrrolidin-2-yl)-1-((1R,4R,5S)-2-azabicyclo[2.1.1]hexan-5-yl)-6-fluoro-7-(3-fluoroquinolin-5-yl)-4-((S)-1-((S)-1-methylpyrrolidin-2-yl)ethoxy)-1H-pyrrolo[3,2-c]quinolin-8-yl)propanenitrile]
≤ 0.1 µM: all assays above

CC(=O)N1[C@@H](c2cc3c(O[C@@H](C)[C@@H]4CCCN4C)nc4c(F)c(-c5cccc6c5C(C#N)CCC6)c(C)cc4c3n2[C@H]2[C@H]3CN[C@@H]2C3)C[C@@H]2C[C@@H]21 (stereo partly drawn) [Example 7, 8-(2-((1S,3R,5S)-2-Acetyl-2-azabicyclo[3.1.0]hexan-3-yl)-1-((1R,4R,5S)-2-azabicyclo[2.1.1]hexan-5-yl)-6-fluoro-8-methyl-4-((S)-1-((S)-1-methylpyrrolidin-2-yl)ethoxy)-1H-pyrrolo[3,2-c]quinolin-7-yl)-1,2,3,4-tetrahydronaphthalene-1-carbonitrile]
≤ 0.1 µM: all assays above

CC(=O)N1CCC[C@@H]1c1cc2c(O[C@@H](C)[C@@H]3CCCN3C)nc3c(F)c(-c4cccc(Cl)c4Cl)c(CCC#N)cc3c2n1[C@H]1[C@H]2CN[C@@H]1C2 [Example 1, 3-(2-((R)-1-Acetylpyrrolidin-2-yl)-1-((1R,4R,5S)-2-azabicyclo[2.1.1]hexan-5-yl)-7-(2,3-dichlorophenyl)-6-fluoro-4-((S)-1-((S)-1-methylpyrrolidin-2-yl)ethoxy)-1H-pyrrolo[3,2-c]quinolin-8-yl)propanenitrile]
≤ 0.1 µM: all assays above

CC(=O)N1CCC[C@@H]1c1c(Cl)c2c(O[C@@H](C)[C@@H]3CCCN3C)nc3c(F)c(-c4cccc(Cl)c4Cl)c(CCC#N)cc3c2n1[C@H]1[C@H]2CN[C@@H]1C2 [Example 3, 3-(2-((R)-1-Acetylpyrrolidin-2-yl)-1-((1R,4R,5S)-2-azabicyclo[2.1.1]hexan-5-yl)-3-chloro-7-(2,3-dichlorophenyl)-6-fluoro-4-((S)-1-((S)-1-methylpyrrolidin-2-yl)ethoxy)-1H-pyrrolo[3,2-c]quinolin-8-yl)propanenitrile]
≤ 0.1 µM: all assays above

COC(=O)N1C[C@@H](Oc2ccccn2)C[C@@H]1c1cc2c(O[C@@H](C)[C@@H]3CCCN3C)nc3c(F)c(-c4cccc(Cl)c4Cl)c(CCC#N)cc3c2n1[C@H]1[C@H]2CN[C@@H]1C2 [Example 6, Methyl (2R,4S)-2-(1-((1R,4R,5S)-2-azabicyclo[2.1.1]hexan-5-yl)-8-(2-cyanoethyl)-7-(2,3-dichlorophenyl)-6-fluoro-4-((S)-1-((S)-1-methylpyrrolidin-2-yl)ethoxy)-1H-pyrrolo[3,2-c]quinolin-2-yl)-4-(pyridin-2-yloxy)pyrrolidine-1-carboxylate]
≤ 0.1 µM: all assays above

C[C@H](Oc1nc2c(F)c(-c3cccc(Cl)c3Cl)c(CCC#N)cc2c2c1cc([C@H]1C[C@H](OC(F)F)CN1C(=O)C1CC1)n2[C@H]1[C@H]2CN[C@@H]1C2)[C@@H]1CCCN1C [Example 8, 3-(1-((1R,4R,5S)-2-Azabicyclo[2.1.1]hexan-5-yl)-2-((2R,4S)-1-(cyclopropanecarbonyl)-4-(difluoromethoxy)pyrrolidin-2-yl)-7-(2,3-dichlorophenyl)-6-fluoro-4-((S)-1-((S)-1-methylpyrrolidin-2-yl)ethoxy)-1H-pyrrolo[3,2-c]quinolin-8-yl)propanenitrile]
≤ 0.1 µM: all assays above

CC(=O)N1CCC[C@@H]1c1cc2c(O[C@@H](C)[C@@H]3CCCN3C)nc3c(F)c(-c4cccc5c4C(C#N)CCC5)c(C)cc3c2n1[C@H]1[C@H]2CN[C@@H]1C2 (stereo partly drawn) [Example 4, 8-(2-((R)-1-Acetylpyrrolidin-2-yl)-1-((1R,4R,5S)-2-azabicyclo[2.1.1]hexan-5-yl)-6-fluoro-8-methyl-4-((S)-1-((S)-1-methylpyrrolidin-2-yl)ethoxy)-1H-pyrrolo[3,2-c]quinolin-7-yl)-1,2,3,4-tetrahydronaphthalene-1-carbonitrile]
≤ 0.1 µM: all assays above
